According to PubChem BioAssay AID2060513 (Molecular Pharmacology Branch, DTP, NCI, 2025):
Where “and” joins values, the source holds several entries; their conditions need not be identical. Equal values may be shown once. One block for each molecule: values may come before it.

Tested on: 299254-011-R-J1-PDC complex spheroids viability
Experiment: Anticancer human tumor 299254-011-R-J1-PDC patient-derived melanoma cell line growth inhibition [GQUAD]
Details: for viability, T/C: stronger effect = lower value
Text: DNA G-quadruplex Stabilizer Agents in Combinations in Complex Spheroids
A high-throughput screen of multi-cell type tumor spheroids was designed to identify active combinations of DNA G-quadruplex stabilizer agents and targeted small molecules. Complex spheroids include a stromal component modeled by human endothelial cells (HUVEC) and fibroblasts modeled by human mesenchymal stem cells (MSCs). The concentration ranges selected for each drug and investigational agent were based upon clinically achievable concentrations if the clinical Cmax of the agent was known.
Compounds. The drugs and investigational agents: pidnarulex (CX-5461; NSC782164), APTO-253 (NSC789042), BRACO-19 (NSC847499), peposertib (NSC802822), ceralasertib (NSC780249), elimusertib (NSC800525), camonsertib (NSC841442), AZD-1390 (NSC803789), olaparib (NSC753686), talazoparib (NSC767125), ART-558 (NSC835418), sotorasib (NSC818433), MRTX-1133 (NSC836407), SN-38 (NSC673596), topotecan (NSC609699), etoposide (NSC141540), doxorubicin (NSC123127), gemcitabine (NSC613327), 5-fluorouracil (NSC19893), paclitaxel (NSC125973), vemurafenib (NSC761431), panobinostat (NSC761190), R-306465 (JNJ-16241199; NSC773264), adavosertib (NSC754352), TP-3654 (NSC805149), carboplatin (NSC241240), KSQ-4279 (NSC840948), and staurosporine (NSC755774) were obtained from the National Cancer Institute (NCI) Developmental Therapeutics Program Chemical Repository (34). The FDA-approved anticancer drug set is available from the NCI Developmental Therapeutics Program. […] The stock solutions were prepared in dimethyl sulfoxide (DMSO, Sigma-Aldrich, St. Louis, MO, cat. D2650) at 800-fold the tested concentration and stored at -70 degrees C prior to their use. All drugs and investigational agents were tested over a range starting from a high concentration at or near the clinical Cmax and decreasing in half-log increments. If the clinical Cmax for an agent had not been determined, the highest concentration tested was 10 microM.
2.3 Cell Culture. All cells were maintained in an incubator at 37 degrees C and 5% CO2 with 95% humidity. The PDC lines were cultured according to standard operating procedures established by the NCI PDMR. All PDCs were thawed and cultured in Matrigel-coated flasks prepared with a working solution of 1X Ham's F-12 nutrient mix, without supplementation (Invitrogen, cat. 11765054), 100 U/mL penicillin-streptomycin (Invitrogen, cat. 15140122), and 2.5% Matrigel (Corning Inc., cat. 354248) for the first three passages. The 857933-349-R-J2-PDC line was cultured in 6C/Colon 1B media, which includes advanced DMEM/F-12 (Thermo Fisher Scientific, cat. 12634028), 10 mM HEPES (Thermo Fisher Scientific, cat. 15630080), 1X GlutaMAX supplement (Thermo Fisher Scientific, cat. 35050061), 0.1 mg/mL primocin (InvivoGen, cat. ant-pm-2), 10% defined fetal bovine serum, heat inactivated (HyClone Laboratories Inc., cat. SH30070.03HI), 50% L-WRN conditioned media (ATCC, cat. CRL-3276), 1.25 mM N-Acetyl-L-cysteine (Sigma-Aldrich, cat. A9165), 10 mM nicotinamide (Sigma-Aldrich, cat. N0636), 1X B-27 supplement (Thermo Fisher Scientific, cat. 17504044), 1X N-2 supplement (Thermo Fisher Scientific, cat. 17502048), 10 microM Y-27632 dihydrochloride (Tocris Bioscience, cat. 1254), and 50 ng/mL human EGF recombinant protein (Thermo Fisher Scientific, cat. PHG0311). The 485176-168-R4-J1-PDC line was cultured in Panc media, which includes all 6C/Colon 1B media components plus 100 ng/mL human FGF-10 (Thermo Fisher Scientific, cat. 100-26), 500 nM SB-431542 (Selleckchem, cat. S1067), and gastrin (Tocris, cat. 3006).
[…]

[1] = compound alone, run of 02/26/2024
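Further: spheroids exposed to the agents for seven days before readout.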
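Wherever viability, T/C is given: percent viability relative to DMSO vehicle control wells = 100%.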

SMILES: CN(C)c1ccc(Nc2c3ccc(NC(=O)CCN4CCCC4)cc3nc3cc(NC(=O)CCN4CCCC4)ccc23)cc1
viability, T/C (compound 0.0316 µM): 95.2% [middle of 12 runs]
viability, T/C (compound 0.316 µM): 95.5% [middle of 12 runs]
viability, T/C (compound 3.16 µM): 106% [middle of 12 runs]
viability, T/C (compound 10 µM): 98.3% [middle of 12 runs]
IC50 [1]: > 10 µM

SMILES: COc1cc(C2c3cc4c(cc3C(OC3OC5COC(C)OC5C(O)C3O)C3COC(=O)C23)OCO4)cc(OC)c1O (configuration not stated)
viability, T/C (compound 0.0316 µM): 102% and 90.8% and 122%
viability, T/C (compound 0.1 µM): 91.4% and 97.2% and 87.9%
viability, T/C (compound 0.316 µM): 85.3% and 106% (2×)
viability, T/C (compound 1 µM): 97.1% and 91.9% and 92.2%
viability, T/C (compound 3.16 µM): 75.5% and 101% and 99%
viability, T/C (compound 10 µM): 94.6% and 84.8% and 92.6%
IC50 (curve of compound): > 10 µM

SMILES: COc1cccc2c1C(=O)c1c(O)c3c(c(O)c1C2=O)CC(O)(C(=O)CO)CC3OC1CC(N)C(O)C(C)O1 (configuration not stated)
viability, T/C (compound 0.0316 µM): 107% and 92.6% and 98%
viability, T/C (compound 0.1 µM): 99.6% and 107% and 89.3%
viability, T/C (compound 0.316 µM): 88.1% and 81.5% and 113%
viability, T/C (compound 1 µM): 75.9% and 86.5% and 81.4%
viability, T/C (compound 3.16 µM): 60.2% and 77% and 70.5%
viability, T/C (compound 10 µM): 21.2% and 28% and 20.3%
IC50 (curve of compound): 3.89 µM and 5.82 µM and 4.94 µM

SMILES: Cc1[nH]c2ccccc2c1CCNCc1ccc(/C=C/C(=O)NO)cc1
viability, T/C (compound 0.000999 µM): 99.9% and 96.8% and 89.5%
viability, T/C (compound 0.00316 µM): 87.9% and 114% and 103%
viability, T/C (compound 0.00999 µM): 94.2% and 94.3% and 96%
viability, T/C (compound 0.0316 µM): 96.9% and 88.8% and 85.4%
viability, T/C (compound 0.0999 µM): 60.7% and 72.7% and 67.3%
viability, T/C (compound 0.316 µM): 19.8% and 19.1% and 16.6%
IC50 (curve of compound): 0.135 µM and 0.159 µM and 0.147 µM

SMILES: Cc1cccc(N(C)C(=O)C2C(O)CCN2c2nc(C)cc(C(F)(F)F)c2C#N)c1 (configuration not stated)
viability, T/C (compound 0.0316 µM): 96.8% and 97.5% and 104%
viability, T/C (compound 0.1 µM): 96.3% and 100% and 97.4%
viability, T/C (compound 0.316 µM): 99.6% and 98.6% and 93.5%
viability, T/C (compound 1 µM): 96.4% and 89.9% and 93.7%
viability, T/C (compound 3.16 µM): 103% and 83.6% and 97%
viability, T/C (compound 10 µM): 79.5% and 81.2% and 102%
IC50 (curve of compound): > 10 µM

SMILES: Cc1cnc(CNC(=O)c2c(=O)c3ccc(N4CCCN(C)CC4)nc3n3c2sc2ccccc23)cn1
viability, T/C (compound 0.316 µM): 100% [middle of 12 runs]

SMILES: Nc1ccn(C2OC(CO)C(O)C2(F)F)c(=O)n1 (configuration not stated)
viability, T/C (compound 0.0316 µM): 95.8% and 98.2% and 86.5%
viability, T/C (compound 0.1 µM): 83.6% and 88.4% and 76%
viability, T/C (compound 0.316 µM): 80.3% and 72.2% and 61.7%
viability, T/C (compound 1 µM): 41.2% and 60.1% and 52.5%
viability, T/C (compound 3.16 µM): 58.2% and 50.2% and 50.8%
viability, T/C (compound 10 µM): 53.6% and 73% and 51.9%
IC50 (curve of compound): > 10 µM

SMILES: O=C(NO)c1cnc(N2CCN(S(=O)(=O)c3ccc4ccccc4c3)CC2)nc1
viability, T/C (compound 0.0316 µM): 99.8% and 95.4% and 87.7%
viability, T/C (compound 0.1 µM): 103% and 87.4% and 81.9%
viability, T/C (compound 0.316 µM): 73.4% and 75% and 32.2%
viability, T/C (compound 1 µM): 3.62% and 4.16% and 0.67%
viability, T/C (compound 3.16 µM): 0.32% and 0.22%
viability, T/C (compound 10 µM): 0.34% and 0.21%
IC50 (curve of compound): 0.465 µM and 0.475 µM and 0.21 µM

SMILES: O=C(c1cc(Cc2n[nH]c(=O)c3ccccc23)ccc1F)N1CCN(C(=O)C2CC2)CC1
viability, T/C (compound 0.0316 µM): 94.2% and 117% and 81.5%
viability, T/C (compound 0.1 µM): 111% and 86.5% and 85.5%
viability, T/C (compound 0.316 µM): 101% and 84.9% and 95.2%
viability, T/C (compound 1 µM): 115% and 101% and 91.1%
viability, T/C (compound 3.16 µM): 132% and 80.7% and 87.9%
viability, T/C (compound 10 µM): 97.2% and 71.2% and 88.4%
IC50 (curve of compound): > 10 µM

SMILES: O=c1[nH]cc(F)c(=O)[nH]1
viability, T/C (compound 0.0316 µM): 117% and 81.7% and 100%
viability, T/C (compound 0.1 µM): 110% and 105% and 96.5%
viability, T/C (compound 0.316 µM): 114% and 113% and 103%
viability, T/C (compound 1 µM): 103% and 86.2% and 122%
viability, T/C (compound 3.16 µM): 114% and 113% and 83.2%
viability, T/C (compound 10 µM): 103% and 85.3% and 87.8%
IC50 (curve of compound): > 10 µM

Continued, in another order:

IC50 (curve of compound): 8.53 µM and 9.96 µM and 9.31 µM
SMILES: COc1ccc([C@@H](O)c2cc(-c3ncnc4cc(N5CCOCC5)ccc34)c(F)cc2Cl)nn1
viability, T/C (compound 0.0316 µM): 119% and 95% and 106%
viability, T/C (compound 0.1 µM): 103% and 97.4% and 85.3%
viability, T/C (compound 0.316 µM): 121% and 93.8% and 102%
viability, T/C (compound 1 µM): 89.3% and 96.7% and 82.5%
viability, T/C (compound 3.16 µM): 90.7% and 87.1% and 84.1%
viability, T/C (compound 10 µM): 43.1% and 49.8% and 47%

IC50 (curve of compound): > 10 µM
SMILES: COc1ncnc(C2CC2)c1-c1ncc2cnn(Cc3ccc(-c4nc(C(F)(F)F)cn4C(C)C)cc3)c2n1
viability, T/C (compound 0.0316 µM): 105% and 110% and 90.2%
viability, T/C (compound 0.1 µM): 115% and 110% and 86.3%
viability, T/C (compound 0.316 µM): 95.2% and 96.1% and 84.1%
viability, T/C (compound 1 µM): 102% (2×) and 85%
viability, T/C (compound 3.16 µM): 107% and 93.2% and 89.6%
viability, T/C (compound 10 µM): 82.6% and 87.6% and 91.8%

IC50 (compound alone, run of 02/20/2024): > 10 µM
IC50 [1]: > 10 µM
SMILES: Cc1[nH]c2ccc(F)cc2c1-c1nc2c3cccnc3c3ncccc3c2[nH]1
viability, T/C (compound 0.0316 µM): 99.1% [middle of 12 runs]
viability, T/C (compound 0.316 µM): 95.6% [middle of 12 runs]

IC50 (curve of compound): > 0.316 µM
SMILES: Cn1ncnc1[C@H]1c2n[nH]c(=O)c3cc(F)cc(c23)N[C@@H]1c1ccc(F)cc1
viability, T/C (compound 0.000999 µM): 105% (2×) and 104%
viability, T/C (compound 0.00316 µM): 103% and 101% and 89.8%
viability, T/C (compound 0.00999 µM): 92.7% and 94.7% and 116%
viability, T/C (compound 0.0316 µM): 107% and 106% and 84.5%
viability, T/C (compound 0.0999 µM): 88.5% and 94.8% and 95.9%
viability, T/C (compound 0.316 µM): 125% and 105% and 92.4%
